Data as given in ChEMBL document CHEMBL5346973 (J Med Chem, 2023).
Where a SMILES comes first, the peptide text is derived from it.

Columns and labels:
[1] = target: Nicotinic acetylcholine receptor alpha9/alpha10 (Rattus norvegicus, UniProt P43144+Q9JLB5); assay: Antagonist activity at rat alpha9alpha10 nACh receptor expressed in Xenopus oocyte assessed as inhibition of acetylcholine-induced response at -70 mV holding potential by voltage-clamp based electrophysiological assay; format: cell-based
[2] = target: Neuronal acetylcholine receptor subunit alpha-7 (Rattus norvegicus, UniProt Q05941); assay: Antagonist activity at rat alpha7 nACh receptor expressed in Xenopus oocyte assessed as inhibition of acetylcholine-induced response at -70 mV holding potential by voltage-clamp based electrophysiological assay; format: cell-based
Neuronal acetylcholine receptor subunit alpha-7, sequence (Q05941 whole entry): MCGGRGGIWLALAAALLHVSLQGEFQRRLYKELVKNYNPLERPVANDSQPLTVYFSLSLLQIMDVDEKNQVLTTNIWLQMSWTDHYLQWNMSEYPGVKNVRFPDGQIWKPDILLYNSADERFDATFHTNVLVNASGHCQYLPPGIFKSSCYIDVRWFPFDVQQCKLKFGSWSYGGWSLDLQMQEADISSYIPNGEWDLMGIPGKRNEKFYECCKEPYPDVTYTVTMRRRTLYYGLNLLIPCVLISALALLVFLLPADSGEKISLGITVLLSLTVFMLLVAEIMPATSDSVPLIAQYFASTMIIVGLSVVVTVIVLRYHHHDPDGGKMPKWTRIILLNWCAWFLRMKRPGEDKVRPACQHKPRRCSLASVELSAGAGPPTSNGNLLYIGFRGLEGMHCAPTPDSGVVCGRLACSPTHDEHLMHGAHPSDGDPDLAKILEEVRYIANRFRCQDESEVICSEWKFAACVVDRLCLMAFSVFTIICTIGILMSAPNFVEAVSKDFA

Nicotinic acetylcholine receptor alpha9/alpha10, sequence (P43144 whole entry): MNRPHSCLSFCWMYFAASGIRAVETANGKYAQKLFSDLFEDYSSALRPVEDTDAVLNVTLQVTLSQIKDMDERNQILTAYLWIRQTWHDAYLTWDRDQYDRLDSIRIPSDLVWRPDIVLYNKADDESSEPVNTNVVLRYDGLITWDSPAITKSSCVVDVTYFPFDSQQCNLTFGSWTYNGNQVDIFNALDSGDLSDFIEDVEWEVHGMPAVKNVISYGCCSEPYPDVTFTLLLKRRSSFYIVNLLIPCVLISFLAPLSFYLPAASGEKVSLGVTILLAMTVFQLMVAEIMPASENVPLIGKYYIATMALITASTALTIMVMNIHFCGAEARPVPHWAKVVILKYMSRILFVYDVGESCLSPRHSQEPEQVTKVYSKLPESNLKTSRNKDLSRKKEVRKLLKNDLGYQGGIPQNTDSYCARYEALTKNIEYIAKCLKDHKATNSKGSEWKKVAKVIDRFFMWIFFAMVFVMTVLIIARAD
Nicotinic acetylcholine receptor alpha9/alpha10, sequence (Q9JLB5 whole entry): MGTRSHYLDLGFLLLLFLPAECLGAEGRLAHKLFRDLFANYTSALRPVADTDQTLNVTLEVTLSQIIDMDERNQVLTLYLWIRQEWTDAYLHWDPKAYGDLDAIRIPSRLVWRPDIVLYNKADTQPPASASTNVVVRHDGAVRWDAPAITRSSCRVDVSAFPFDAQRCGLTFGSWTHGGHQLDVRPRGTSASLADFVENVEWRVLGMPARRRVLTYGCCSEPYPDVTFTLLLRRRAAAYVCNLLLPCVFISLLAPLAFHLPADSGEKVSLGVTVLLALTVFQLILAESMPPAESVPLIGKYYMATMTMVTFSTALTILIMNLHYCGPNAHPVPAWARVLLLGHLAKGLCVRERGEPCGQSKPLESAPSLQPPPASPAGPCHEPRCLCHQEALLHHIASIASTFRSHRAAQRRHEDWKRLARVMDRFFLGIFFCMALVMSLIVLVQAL

Compound	IC50 [1]	IC50 [2]
CC[C@H](C)[C@@H]1NC(=O)[C@H](CCCNC(=N)N)NC(=O)[C@H](CCCNC(=N)N)NC(=O)[C@@H](NC(=O)[C@H](Cc2ccc(O)cc2)NC(=O)[C@H](CCCNC(=N)N)NC(=O)[C@H](CCCNC(=N)N)NC(=O)[C@H](CCCNC(=N)N)NC(=O)[C@H](CCCNC(=N)N)NC(=O)[C@H](CC(=O)O)NC(=O)[C@H](Cc2ccc(O)cc2)NC(=O)[C@@H]2CCCN2C(=O)[C@H](CO)NC(=O)[C@H](CCCNC(=N)N)NC(=O)[C@@H]2CSSC[C@H](NC(=O)[C@@H](N)[C@@H](C)O)C(=O)N[C@@H](CCCNC(=N)N)C(=O)N[C@@H](CO)C(=O)N[C@@H](CO)C(=O)NCC(=O)N[C@@H](CCCNC(=N)N)C(=O)N[C@@H](Cc3ccc(O)cc3)C(=O)N2)CSSC[C@@H](C(=O)N[C@H](C(=O)O)C(C)C)NC(=O)[C@H](C)NC(=O)[C@H](CC(=O)O)NC(=O)[C@H](C)NC1=O	21 nM	650 nM
CC[C@H](C)[C@@H]1NC(=O)[C@H](CCCNC(=N)N)NC(=O)[C@H](CCCNC(=N)N)NC(=O)[C@@H]2CSSC[C@H](NC(=O)[C@H](Cc3ccc(O)cc3)NC(=O)[C@H](CCCNC(=N)N)NC(=O)CNC(=O)[C@H](CO)NC(=O)[C@H](CO)NC(=O)[C@H](CCCNC(=N)N)NC(=O)[C@@H](NC(=O)[C@@H](N)[C@@H](C)O)CSSC[C@@H](C(=O)N[C@H](C(=O)O)C(C)C)NC(=O)[C@H](C)NC(=O)[C@H](CC(=O)O)NC(=O)[C@H]([C@@H](C)O)NC1=O)C(=O)N[C@@H](CCCNC(=N)N)C(=O)N[C@@H](CO)C(=O)N[C@@H](C)C(=O)N[C@@H](Cc1ccc(O)cc1)C(=O)N[C@@H](CC(=O)O)C(=O)N[C@@H](CCCNC(=N)N)C(=O)N[C@@H](CCCNC(=N)N)C(=O)N[C@@H](CCCNC(=N)N)C(=O)N[C@@H](CCCNC(=N)N)C(=O)N[C@@H](Cc1ccc(O)cc1)C(=O)N2 (HELM PEPTIDE1{T.C.R.S.S.G.R.Y.C.R.S.A.Y.D.R.R.R.R.Y.C.R.R.I.T.D.A.C.V}$PEPTIDE1,PEPTIDE1,2:R3-27:R3|PEPTIDE1,PEPTIDE1,9:R3-20:R3$$$V2.0)	10 nM	1780 nM
CC[C@H](C)[C@@H]1NC(=O)[C@H](CCCNC(=N)N)NC(=O)[C@H](CCCNC(=N)N)NC(=O)[C@@H]2CSSC[C@H](NC(=O)[C@H](Cc3ccc(O)cc3)NC(=O)[C@H](CCCNC(=N)N)NC(=O)CNC(=O)[C@H](C)NC(=O)[C@H](CO)NC(=O)[C@H](CCCNC(=N)N)NC(=O)[C@@H](NC(=O)[C@@H](N)[C@@H](C)O)CSSC[C@@H](C(=O)N[C@H](C(=O)O)C(C)C)NC(=O)[C@H](C)NC(=O)[C@H](CC(=O)O)NC(=O)[C@H]([C@@H](C)O)NC1=O)C(=O)N[C@@H](CCCNC(=N)N)C(=O)N[C@@H](CO)C(=O)N1CCC[C@H]1C(=O)N[C@@H](Cc1ccc(O)cc1)C(=O)N[C@@H](CC(=O)O)C(=O)N[C@@H](CCCNC(=N)N)C(=O)N[C@@H](CCCNC(=N)N)C(=O)N[C@@H](CCCNC(=N)N)C(=O)N[C@@H](CCCNC(=N)N)C(=O)N[C@@H](Cc1ccc(O)cc1)C(=O)N2 (HELM PEPTIDE1{T.C.R.S.A.G.R.Y.C.R.S.P.Y.D.R.R.R.R.Y.C.R.R.I.T.D.A.C.V}$PEPTIDE1,PEPTIDE1,2:R3-27:R3|PEPTIDE1,PEPTIDE1,9:R3-20:R3$$$V2.0)	60 nM	6330 nM
CC[C@H](C)[C@@H]1NC(=O)[C@H](CCCNC(=N)N)NC(=O)[C@H](CCCNC(=N)N)NC(=O)[C@@H]2CSSC[C@H](NC(=O)[C@H](Cc3ccc(O)cc3)NC(=O)[C@H](CCCNC(=N)N)NC(=O)CNC(=O)[C@H](CO)NC(=O)[C@H](C)NC(=O)[C@H](CCCNC(=N)N)NC(=O)[C@@H](NC(=O)[C@@H](N)[C@@H](C)O)CSSC[C@@H](C(=O)N[C@H](C(=O)O)C(C)C)NC(=O)[C@H](C)NC(=O)[C@H](CC(=O)O)NC(=O)[C@H]([C@@H](C)O)NC1=O)C(=O)N[C@@H](CCCNC(=N)N)C(=O)N[C@@H](CO)C(=O)N1CCC[C@H]1C(=O)N[C@@H](Cc1ccc(O)cc1)C(=O)N[C@@H](CC(=O)O)C(=O)N[C@@H](CCCNC(=N)N)C(=O)N[C@@H](CCCNC(=N)N)C(=O)N[C@@H](CCCNC(=N)N)C(=O)N[C@@H](CCCNC(=N)N)C(=O)N[C@@H](Cc1ccc(O)cc1)C(=O)N2	17 nM	4100 nM
CC[C@H](C)[C@@H]1NC(=O)[C@H](CCCNC(=N)N)NC(=O)[C@H](CCCNC(=N)N)NC(=O)[C@@H]2CSSC[C@H](NC(=O)[C@H](Cc3ccc(O)cc3)NC(=O)[C@H](C)NC(=O)CNC(=O)[C@H](CO)NC(=O)[C@H](CO)NC(=O)[C@H](CCCNC(=N)N)NC(=O)[C@@H](NC(=O)[C@@H](N)[C@@H](C)O)CSSC[C@@H](C(=O)N[C@H](C(=O)O)C(C)C)NC(=O)[C@H](C)NC(=O)[C@H](CC(=O)O)NC(=O)[C@H]([C@@H](C)O)NC1=O)C(=O)N[C@@H](CCCNC(=N)N)C(=O)N[C@@H](CO)C(=O)N1CCC[C@H]1C(=O)N[C@@H](Cc1ccc(O)cc1)C(=O)N[C@@H](CC(=O)O)C(=O)N[C@@H](CCCNC(=N)N)C(=O)N[C@@H](CCCNC(=N)N)C(=O)N[C@@H](CCCNC(=N)N)C(=O)N[C@@H](CCCNC(=N)N)C(=O)N[C@@H](Cc1ccc(O)cc1)C(=O)N2 (HELM PEPTIDE1{T.C.R.S.S.G.A.Y.C.R.S.P.Y.D.R.R.R.R.Y.C.R.R.I.T.D.A.C.V}$PEPTIDE1,PEPTIDE1,2:R3-27:R3|PEPTIDE1,PEPTIDE1,9:R3-20:R3$$$V2.0)	48 nM	> 10000 nM
CC[C@H](C)[C@@H]1NC(=O)[C@H](CCCNC(=N)N)NC(=O)[C@H](C)NC(=O)[C@@H]2CSSC[C@H](NC(=O)[C@H](Cc3ccc(O)cc3)NC(=O)[C@H](CCCNC(=N)N)NC(=O)CNC(=O)[C@H](CO)NC(=O)[C@H](CO)NC(=O)[C@H](CCCNC(=N)N)NC(=O)[C@@H](NC(=O)[C@@H](N)[C@@H](C)O)CSSC[C@@H](C(=O)N[C@H](C(=O)O)C(C)C)NC(=O)[C@H](C)NC(=O)[C@H](CC(=O)O)NC(=O)[C@H]([C@@H](C)O)NC1=O)C(=O)N[C@@H](CCCNC(=N)N)C(=O)N[C@@H](CO)C(=O)N1CCC[C@H]1C(=O)N[C@@H](Cc1ccc(O)cc1)C(=O)N[C@@H](CC(=O)O)C(=O)N[C@@H](CCCNC(=N)N)C(=O)N[C@@H](CCCNC(=N)N)C(=O)N[C@@H](CCCNC(=N)N)C(=O)N[C@@H](CCCNC(=N)N)C(=O)N[C@@H](Cc1ccc(O)cc1)C(=O)N2	37 nM	> 10000 nM
CC[C@H](C)[C@@H]1NC(=O)[C@H](CCCNC(=N)N)NC(=O)[C@H](CCCNC(=N)N)NC(=O)[C@@H](NC(=O)[C@H](Cc2ccc(O)cc2)NC(=O)[C@H](CCCNC(=N)N)NC(=O)[C@H](CCCNC(=N)N)NC(=O)[C@H](CCCNC(=N)N)NC(=O)[C@H](CCCNC(=N)N)NC(=O)[C@H](CC(=O)O)NC(=O)[C@H](Cc2ccc(O)cc2)NC(=O)[C@@H]2CCCN2C(=O)[C@H](CO)NC(=O)[C@H](CCCNC(=N)N)NC(=O)[C@@H]2CSSC[C@H](NC(=O)[C@@H](N)[C@@H](C)O)C(=O)N[C@@H](CCCNC(=N)N)C(=O)N[C@@H](C)C(=O)N[C@@H](CO)C(=O)NCC(=O)N[C@@H](CCCNC(=N)N)C(=O)N[C@@H](Cc3ccc(O)cc3)C(=O)N2)CSSC[C@@H](C(=O)N[C@H](C(=O)O)C(C)C)NC(=O)[C@H](C)NC(=O)[C@H](CC(=O)O)NC(=O)[C@H]([C@@H](C)O)NC1=O	14 nM	1420 nM
CC[C@H](C)[C@@H]1NC(=O)[C@H](CCCNC(=N)N)NC(=O)[C@H](CCCNC(=N)N)NC(=O)[C@@H]2CSSC[C@H](NC(=O)[C@H](Cc3ccc(O)cc3)NC(=O)[C@H](CCCNC(=N)N)NC(=O)CNC(=O)[C@H](CO)NC(=O)[C@H](CO)NC(=O)[C@H](CCCNC(=N)N)NC(=O)[C@@H](NC(=O)[C@@H](N)[C@@H](C)O)CSSC[C@@H](C(=O)N[C@@H](C)C(=O)O)NC(=O)[C@H](C)NC(=O)[C@H](CC(=O)O)NC(=O)[C@H]([C@@H](C)O)NC1=O)C(=O)N[C@@H](CCCNC(=N)N)C(=O)N[C@@H](CO)C(=O)N1CCC[C@H]1C(=O)N[C@@H](Cc1ccc(O)cc1)C(=O)N[C@@H](CC(=O)O)C(=O)N[C@@H](CCCNC(=N)N)C(=O)N[C@@H](CCCNC(=N)N)C(=O)N[C@@H](CCCNC(=N)N)C(=O)N[C@@H](CCCNC(=N)N)C(=O)N[C@@H](Cc1ccc(O)cc1)C(=O)N2	62 nM	1600 nM
CC[C@H](C)[C@@H]1NC(=O)[C@H](CCCNC(=N)N)NC(=O)[C@H](CCCNC(=N)N)NC(=O)[C@@H](NC(=O)[C@H](Cc2ccc(O)cc2)NC(=O)[C@H](CCCNC(=N)N)NC(=O)[C@H](CCCNC(=N)N)NC(=O)[C@H](CCCNC(=N)N)NC(=O)[C@H](CCCNC(=N)N)NC(=O)[C@H](CC(=O)O)NC(=O)[C@H](Cc2ccc(O)cc2)NC(=O)[C@H](C)NC(=O)[C@H](CO)NC(=O)[C@H](CCCNC(=N)N)NC(=O)[C@@H]2CSSC[C@H](NC(=O)[C@@H](N)[C@@H](C)O)C(=O)N[C@H](CCCNC(=N)N)C(=O)N[C@@H](CO)C(=O)N[C@@H](CO)C(=O)NCC(=O)N[C@@H](CCCNC(=N)N)C(=O)N[C@@H](Cc3ccc(O)cc3)C(=O)N2)CSSC[C@@H](C(=O)N[C@H](C(=O)O)C(C)C)NC(=O)[C@H](C)NC(=O)[C@H](CC(=O)O)NC(=O)[C@H]([C@@H](C)O)NC1=O	16 nM	2250 nM
CC[C@H](C)[C@@H]1NC(=O)[C@H](CCCNC(=N)N)NC(=O)[C@H](CCCNC(=N)N)NC(=O)[C@@H]2CSSC[C@H](NC(=O)[C@H](Cc3ccc(O)cc3)NC(=O)[C@H](CCCNC(=N)N)NC(=O)CNC(=O)[C@H](CO)NC(=O)[C@H](CO)NC(=O)[C@H](CCCNC(=N)N)NC(=O)[C@@H](NC(=O)[C@H](C)N)CSSC[C@@H](C(=O)N[C@H](C(=O)O)C(C)C)NC(=O)[C@H](C)NC(=O)[C@H](C)NC(=O)[C@H]([C@@H](C)O)NC1=O)C(=O)N[C@@H](CCCNC(=N)N)C(=O)N[C@@H](CO)C(=O)N1CCC[C@H]1C(=O)N[C@@H](Cc1ccc(O)cc1)C(=O)N[C@@H](CC(=O)O)C(=O)N[C@@H](CCCNC(=N)N)C(=O)N[C@@H](CCCNC(=N)N)C(=O)N[C@@H](CCCNC(=N)N)C(=O)N[C@@H](CCCNC(=N)N)C(=O)N[C@@H](Cc1ccc(O)cc1)C(=O)N2	27 nM	5890 nM
